Assay results published in US20250034216A1, “STEREOSELECTIVE COVALENT LIGANDS FOR ONCOGENIC AND IMMUNOLOGICAL PROTEINS” (The Scripps Research Institute, priority 2021, published 2025).

Target: T1, DENND2B_C804 (Homo sapiens, UniProt P78524)
T1 construct: endogenous in cells; host or cells: 22Rv1
T1 sequence (P78524 1-1137): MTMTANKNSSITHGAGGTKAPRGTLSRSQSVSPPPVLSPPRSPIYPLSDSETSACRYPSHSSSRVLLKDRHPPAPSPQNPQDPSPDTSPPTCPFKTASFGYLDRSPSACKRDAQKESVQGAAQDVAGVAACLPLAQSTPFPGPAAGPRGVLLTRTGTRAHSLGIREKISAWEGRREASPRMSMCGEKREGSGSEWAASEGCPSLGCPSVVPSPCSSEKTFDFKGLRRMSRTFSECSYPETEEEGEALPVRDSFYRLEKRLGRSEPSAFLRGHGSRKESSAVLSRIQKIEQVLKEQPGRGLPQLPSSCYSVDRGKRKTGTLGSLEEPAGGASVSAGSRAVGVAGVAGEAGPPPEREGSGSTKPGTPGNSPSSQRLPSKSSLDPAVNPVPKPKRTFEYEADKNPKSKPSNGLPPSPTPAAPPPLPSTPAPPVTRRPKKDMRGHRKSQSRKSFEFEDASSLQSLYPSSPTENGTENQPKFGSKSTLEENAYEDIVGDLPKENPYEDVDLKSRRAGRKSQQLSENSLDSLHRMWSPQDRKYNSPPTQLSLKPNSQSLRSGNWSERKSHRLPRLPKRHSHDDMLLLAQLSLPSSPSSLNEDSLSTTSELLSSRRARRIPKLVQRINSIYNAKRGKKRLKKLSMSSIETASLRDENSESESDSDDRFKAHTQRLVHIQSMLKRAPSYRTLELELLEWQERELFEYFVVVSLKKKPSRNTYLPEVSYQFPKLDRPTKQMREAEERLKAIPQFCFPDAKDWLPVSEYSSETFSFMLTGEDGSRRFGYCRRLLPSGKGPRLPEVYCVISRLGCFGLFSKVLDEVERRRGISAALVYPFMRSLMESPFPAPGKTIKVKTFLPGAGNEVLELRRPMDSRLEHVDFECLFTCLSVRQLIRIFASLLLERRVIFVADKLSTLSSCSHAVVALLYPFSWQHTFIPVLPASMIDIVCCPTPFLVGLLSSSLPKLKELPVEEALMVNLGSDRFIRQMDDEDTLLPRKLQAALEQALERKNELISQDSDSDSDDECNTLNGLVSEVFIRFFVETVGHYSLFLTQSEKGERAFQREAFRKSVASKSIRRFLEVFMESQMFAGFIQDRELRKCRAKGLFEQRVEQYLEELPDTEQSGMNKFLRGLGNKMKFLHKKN
Experiment: IA-DTB cysteine engagement
Type: binding
Conditions: 22Rv1 cells, 20 μM probe, 1 h, relative to DMSO
Summary of the method: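 In-situ probe treatment of cells; lysate 2 mg/mL, IA-DTB 1 h RT; MeOH/CHCl3 precipitation, DTT/iodoacetamide, trypsin; streptavidin enrichment; TMT labeling, high-pH fractionation. Ratio = TMT reporter intensity / mean DMSO channels, median-normalized.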

Row | Compound | % engagement DENND2B_C804 [%]
1 | C=CC(=O)N1C[C@H](c2ccc(Br)cc2)[C@@H]1C(=O)Nc1cccc2cccnc12 [MY-1B, (2R,3S)-1-acryloyl-3-(4-bromophenyl)-N-(quinolin-8-yl)azetidine-2-carboxamide] | 80.25
2 | C=CC(=O)N1C[C@H](c2ccc(Br)cc2)[C@H]1C(=O)Nc1cccc2cccnc12 [MY-3B, (2S,3S)-1-acryloyl-3-(4-bromophenyl)-N-(quinolin-8-yl)azetidine-2-carboxamide] | −5.75
3 | C=CC(=O)N1C[C@H](c2ccc(Br)cc2)[C@H]1C(=O)Nc1cccc2cccnc12 [MY-3A, (2S,3S)-1-acryloyl-3-(4-bromophenyl)-N-(quinolin-8-yl)azetidine-2-carboxamide] | −5.25
4 | C=CC(=O)N1C[C@@H](c2ccc(Br)cc2)[C@H]1C(=O)Nc1cccc2cccnc12 [MY-1A, (2S,3R)-1-acryloyl-3-(4-bromophenyl)-N-(quinolin-8-yl)azetidine-2-carboxamide] | 29.25
